What was measured:
Assay in all cases: KINOMEscan competition binding
Conditions in all cases: compound 10.0 µM
MAPK12 (human) = MAPK12 (human) (UniProt P53778)
MAP4K5 (human) = MAP4K5 (human) (UniProt Q9Y4K4)
ULK3 (human) = ULK3 (human) (UniProt Q6PHR2)
EPHB6 (human) = EPHB6 (human) (UniProt O15197)
PDGFRA (human) = PDGFRA (human) (UniProt P16234)
MAP2K7 (human) = MAP2K7 (human) (UniProt O14733)
CPK1 (P.falciparum) = system: CPK1 (P.falciparum)
MKNK2 (human) = MKNK2 (human) (UniProt Q9HBH9)
CIT (human) = CIT (human) (UniProt O14578)
EGFR (human) = EGFR (human) (UniProt P00533)
NEK4 (human) = NEK4 (human) (UniProt P51957)
PTK2B (human) = PTK2B (human) (UniProt Q14289)
DAPK1 (human) = DAPK1 (human) (UniProt P53355)
AURKB (human) = AURKB (human) (UniProt Q96GD4)
PIK3CB (human) = PIK3CB (human) (UniProt P42338)
CDK4 CCND1 (human) = CDK4 CCND1 (human) (UniProt P11802+P24385)
[1] = biological target: TYK2 JH2 pseudokinase (human) (UniProt P29597)
Chain of TYK2 JH2 pseudokinase (human) (P29597 whole entry, looked up): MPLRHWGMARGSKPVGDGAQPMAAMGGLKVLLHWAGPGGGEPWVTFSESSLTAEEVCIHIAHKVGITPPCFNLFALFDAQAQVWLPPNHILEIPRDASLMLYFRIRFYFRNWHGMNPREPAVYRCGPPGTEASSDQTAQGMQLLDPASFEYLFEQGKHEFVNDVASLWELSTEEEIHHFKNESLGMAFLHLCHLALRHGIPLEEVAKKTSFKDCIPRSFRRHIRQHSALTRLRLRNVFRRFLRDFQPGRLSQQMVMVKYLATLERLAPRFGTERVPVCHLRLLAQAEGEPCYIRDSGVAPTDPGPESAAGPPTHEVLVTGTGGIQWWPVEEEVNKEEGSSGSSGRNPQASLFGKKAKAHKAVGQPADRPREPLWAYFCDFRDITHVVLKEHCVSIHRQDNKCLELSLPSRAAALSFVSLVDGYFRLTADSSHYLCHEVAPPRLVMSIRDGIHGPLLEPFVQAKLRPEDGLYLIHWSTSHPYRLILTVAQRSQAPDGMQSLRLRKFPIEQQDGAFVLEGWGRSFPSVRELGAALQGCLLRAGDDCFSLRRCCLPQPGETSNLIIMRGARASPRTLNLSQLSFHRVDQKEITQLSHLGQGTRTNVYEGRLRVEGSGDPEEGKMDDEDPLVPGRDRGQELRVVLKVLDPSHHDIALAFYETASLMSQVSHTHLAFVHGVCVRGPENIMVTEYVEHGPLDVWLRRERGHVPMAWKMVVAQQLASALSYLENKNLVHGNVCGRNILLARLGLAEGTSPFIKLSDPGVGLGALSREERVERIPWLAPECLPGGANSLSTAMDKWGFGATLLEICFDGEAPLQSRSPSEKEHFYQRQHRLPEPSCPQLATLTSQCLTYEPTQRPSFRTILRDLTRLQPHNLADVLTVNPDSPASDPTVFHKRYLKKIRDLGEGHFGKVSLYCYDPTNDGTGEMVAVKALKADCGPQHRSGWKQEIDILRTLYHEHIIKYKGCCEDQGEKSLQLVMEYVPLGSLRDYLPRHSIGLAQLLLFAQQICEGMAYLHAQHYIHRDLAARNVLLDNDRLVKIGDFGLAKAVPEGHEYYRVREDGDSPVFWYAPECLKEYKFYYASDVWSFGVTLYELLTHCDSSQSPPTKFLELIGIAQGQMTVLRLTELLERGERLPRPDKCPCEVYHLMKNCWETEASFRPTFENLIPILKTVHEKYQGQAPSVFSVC

NEK5 (human) = NEK5 (human) (UniProt Q6P3R8)
LRRK2 (human) = LRRK2 (human) (UniProt Q5S007)
GAK (human) = GAK (human) (UniProt O14976)
Chain of GAK (human) (O14976 whole entry, looked up): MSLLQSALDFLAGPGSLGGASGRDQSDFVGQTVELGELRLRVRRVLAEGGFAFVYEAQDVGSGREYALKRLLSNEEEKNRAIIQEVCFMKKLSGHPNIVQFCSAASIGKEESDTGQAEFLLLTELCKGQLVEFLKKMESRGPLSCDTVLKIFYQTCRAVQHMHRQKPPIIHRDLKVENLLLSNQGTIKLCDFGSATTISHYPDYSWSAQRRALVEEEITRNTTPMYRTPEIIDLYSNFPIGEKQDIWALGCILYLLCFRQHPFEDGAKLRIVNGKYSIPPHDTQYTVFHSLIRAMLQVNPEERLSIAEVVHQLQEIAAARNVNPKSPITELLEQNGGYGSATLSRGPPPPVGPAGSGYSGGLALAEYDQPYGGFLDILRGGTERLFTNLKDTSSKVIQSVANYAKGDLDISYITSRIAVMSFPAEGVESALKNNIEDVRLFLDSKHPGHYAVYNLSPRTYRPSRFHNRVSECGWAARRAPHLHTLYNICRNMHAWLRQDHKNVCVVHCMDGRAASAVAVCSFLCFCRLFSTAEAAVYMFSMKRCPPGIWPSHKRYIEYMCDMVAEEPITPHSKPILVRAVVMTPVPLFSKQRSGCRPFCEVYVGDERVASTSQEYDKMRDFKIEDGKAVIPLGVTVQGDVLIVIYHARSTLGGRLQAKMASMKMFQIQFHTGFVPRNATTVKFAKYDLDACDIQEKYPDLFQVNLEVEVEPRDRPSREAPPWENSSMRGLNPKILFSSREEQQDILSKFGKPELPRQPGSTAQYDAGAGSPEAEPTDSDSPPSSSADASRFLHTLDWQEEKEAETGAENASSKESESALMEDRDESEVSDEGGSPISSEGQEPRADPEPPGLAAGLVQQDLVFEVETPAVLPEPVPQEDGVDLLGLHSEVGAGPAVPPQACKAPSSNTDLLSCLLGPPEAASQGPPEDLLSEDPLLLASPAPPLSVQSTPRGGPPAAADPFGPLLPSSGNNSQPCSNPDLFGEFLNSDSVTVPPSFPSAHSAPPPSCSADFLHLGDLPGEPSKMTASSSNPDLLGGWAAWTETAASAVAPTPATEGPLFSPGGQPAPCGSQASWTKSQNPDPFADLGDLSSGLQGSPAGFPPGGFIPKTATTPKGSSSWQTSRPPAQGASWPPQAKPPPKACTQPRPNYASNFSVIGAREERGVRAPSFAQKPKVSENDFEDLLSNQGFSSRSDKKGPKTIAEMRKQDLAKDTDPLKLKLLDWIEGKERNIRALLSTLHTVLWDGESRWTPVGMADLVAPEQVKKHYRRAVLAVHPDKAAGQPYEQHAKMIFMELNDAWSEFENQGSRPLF

PRKD2 (human) = PRKD2 (human) (UniProt Q9BZL6)
STK36 (human) = STK36 (human) (UniProt Q9NRP7)
Chain of STK36 (human) (Q9NRP7 whole entry, looked up): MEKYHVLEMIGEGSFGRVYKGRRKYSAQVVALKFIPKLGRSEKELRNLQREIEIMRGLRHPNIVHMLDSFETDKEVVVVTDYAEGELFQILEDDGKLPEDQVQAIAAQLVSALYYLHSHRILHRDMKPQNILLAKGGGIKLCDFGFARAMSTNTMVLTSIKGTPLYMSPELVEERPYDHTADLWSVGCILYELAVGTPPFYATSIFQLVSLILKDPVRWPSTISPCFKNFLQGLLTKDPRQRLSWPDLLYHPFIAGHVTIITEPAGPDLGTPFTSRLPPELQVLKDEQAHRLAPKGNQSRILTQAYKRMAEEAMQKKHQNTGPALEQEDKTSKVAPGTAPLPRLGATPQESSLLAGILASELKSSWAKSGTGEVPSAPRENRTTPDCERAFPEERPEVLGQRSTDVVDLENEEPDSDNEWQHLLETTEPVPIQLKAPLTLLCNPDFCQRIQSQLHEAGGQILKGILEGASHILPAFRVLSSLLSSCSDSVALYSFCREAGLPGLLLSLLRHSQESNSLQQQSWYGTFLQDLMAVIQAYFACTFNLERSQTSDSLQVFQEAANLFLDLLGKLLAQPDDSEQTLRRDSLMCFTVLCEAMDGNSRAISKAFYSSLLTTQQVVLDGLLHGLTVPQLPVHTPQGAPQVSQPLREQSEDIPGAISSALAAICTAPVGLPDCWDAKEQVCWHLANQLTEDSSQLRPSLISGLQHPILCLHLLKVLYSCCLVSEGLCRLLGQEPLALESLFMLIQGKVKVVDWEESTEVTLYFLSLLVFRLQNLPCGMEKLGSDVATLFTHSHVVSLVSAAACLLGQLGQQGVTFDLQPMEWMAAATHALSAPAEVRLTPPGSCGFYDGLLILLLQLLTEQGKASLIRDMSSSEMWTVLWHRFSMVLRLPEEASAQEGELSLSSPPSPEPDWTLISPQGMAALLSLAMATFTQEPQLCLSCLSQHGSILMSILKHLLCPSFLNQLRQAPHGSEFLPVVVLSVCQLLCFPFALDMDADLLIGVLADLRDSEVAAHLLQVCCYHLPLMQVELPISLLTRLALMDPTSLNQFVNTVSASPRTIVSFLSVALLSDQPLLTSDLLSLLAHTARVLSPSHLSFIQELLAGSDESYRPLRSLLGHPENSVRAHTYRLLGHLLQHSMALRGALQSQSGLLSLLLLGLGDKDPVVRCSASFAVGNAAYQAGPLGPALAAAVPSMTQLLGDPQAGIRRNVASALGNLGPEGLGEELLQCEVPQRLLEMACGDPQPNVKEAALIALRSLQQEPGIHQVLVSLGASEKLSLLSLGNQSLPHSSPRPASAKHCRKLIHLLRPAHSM

SIK1 (human) = SIK1 (human) (UniProt P57059)
WEE1 (human) = WEE1 (human) (UniProt P30291)
STK10 (human) = STK10 (human) (UniProt O94804)
[2] = system: PIK3CA (human), P42336 [H1047L]
MAP3K6 (human) = MAP3K6 (human) (UniProt O95382)
CAMK2D (human) = CAMK2D (human) (UniProt Q13557)
[3] = system: PIK3CA (human), P42336 [M1043I]
[4] = biological target: JAK1 JH1 catalytic (human) (UniProt P23458)
CSNK1G1 (human) = CSNK1G1 (human) (UniProt Q9HCP0)
Chain of CSNK1G1 (human) (Q9HCP0 whole entry, looked up): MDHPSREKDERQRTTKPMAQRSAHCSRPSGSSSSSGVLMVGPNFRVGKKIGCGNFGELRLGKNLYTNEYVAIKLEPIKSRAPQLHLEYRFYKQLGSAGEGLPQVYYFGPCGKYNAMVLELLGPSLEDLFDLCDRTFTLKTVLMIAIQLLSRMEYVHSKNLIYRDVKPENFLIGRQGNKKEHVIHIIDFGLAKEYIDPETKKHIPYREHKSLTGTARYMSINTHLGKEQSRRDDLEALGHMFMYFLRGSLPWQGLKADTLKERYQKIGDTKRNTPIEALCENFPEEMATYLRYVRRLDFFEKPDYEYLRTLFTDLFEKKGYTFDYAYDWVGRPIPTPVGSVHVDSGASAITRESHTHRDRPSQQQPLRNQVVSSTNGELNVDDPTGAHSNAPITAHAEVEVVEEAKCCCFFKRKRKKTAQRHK

PRKCE (human) = PRKCE (human) (UniProt Q02156)
PDPK1 (human) = PDPK1 (human) (UniProt O15530)
RIOK3 (human) = RIOK3 (human) (UniProt O14730)
ULK1 (human) = ULK1 (human) (UniProt O75385)
NEK11 (human) = NEK11 (human) (UniProt Q8NG66)
CDK3 (human) = CDK3 (human) (UniProt Q00526)
Chain of CDK3 (human) (Q00526 whole entry, looked up): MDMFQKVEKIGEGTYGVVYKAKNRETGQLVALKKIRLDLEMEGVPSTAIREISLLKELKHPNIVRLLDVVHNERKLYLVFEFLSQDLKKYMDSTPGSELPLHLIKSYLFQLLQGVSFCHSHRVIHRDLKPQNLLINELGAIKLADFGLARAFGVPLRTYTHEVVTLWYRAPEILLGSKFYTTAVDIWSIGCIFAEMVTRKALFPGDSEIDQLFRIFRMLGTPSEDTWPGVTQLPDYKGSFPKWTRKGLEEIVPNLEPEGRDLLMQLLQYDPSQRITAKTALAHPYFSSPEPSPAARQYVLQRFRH

VRK2 (human) = VRK2 (human) (UniProt Q86Y07)
NEK3 (human) = NEK3 (human) (UniProt P51956)
[5] = system: RET (human), P07949 [V804L]

Chain of MKNK2 (human) (Q9HBH9 whole entry, looked up): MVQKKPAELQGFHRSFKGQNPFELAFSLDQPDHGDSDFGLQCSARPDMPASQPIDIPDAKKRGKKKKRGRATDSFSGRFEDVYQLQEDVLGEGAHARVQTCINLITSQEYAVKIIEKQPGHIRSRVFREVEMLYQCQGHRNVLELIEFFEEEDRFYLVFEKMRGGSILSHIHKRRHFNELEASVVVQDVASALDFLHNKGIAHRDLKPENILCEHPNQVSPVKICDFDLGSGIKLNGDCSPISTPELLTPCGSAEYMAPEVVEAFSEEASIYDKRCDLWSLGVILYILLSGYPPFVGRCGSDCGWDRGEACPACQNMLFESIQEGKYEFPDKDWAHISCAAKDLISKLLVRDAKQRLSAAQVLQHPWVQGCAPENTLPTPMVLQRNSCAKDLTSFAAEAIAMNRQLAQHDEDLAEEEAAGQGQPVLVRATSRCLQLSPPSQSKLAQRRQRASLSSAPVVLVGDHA

| SMILES | kinase still bound, per cent of control (MAPK12 (human)) | kinase still bound, per cent of control (MAP4K5 (human)) | kinase still bound, per cent of control (ULK3 (human)) | kinase still bound, per cent of control (EPHB6 (human)) | kinase still bound, per cent of control (PDGFRA (human)) | kinase still bound, per cent of control (MAP2K7 (human)) | kinase still bound, per cent of control (CPK1 (P.falciparum)) | kinase still bound, per cent of control (MKNK2 (human)) | kinase still bound, per cent of control (CIT (human)) | kinase still bound, per cent of control (EGFR (human)) | kinase still bound, per cent of control (NEK4 (human)) | kinase still bound, per cent of control (PTK2B (human)) | kinase still bound, per cent of control (DAPK1 (human)) | kinase still bound, per cent of control (AURKB (human)) | kinase still bound, per cent of control (PIK3CB (human)) | kinase still bound, per cent of control (CDK4 CCND1 (human)) | kinase still bound, per cent of control [1] | kinase still bound, per cent of control (NEK5 (human)) | kinase still bound, per cent of control (LRRK2 (human)) | kinase still bound, per cent of control (GAK (human)) | further results |
| --- | --- | --- | --- | --- | --- | --- | --- | --- | --- | --- | --- | --- | --- | --- | --- | --- | --- | --- | --- | --- | --- |
| CC1=C(C(=O)Nc2cc3cn[nH]c3cc2F)C(c2ccc(C(F)(F)F)cc2)CC(=O)N1 (stereo not given) | 79% | 90% | 99% | 68% | 84% | 80% | 82% | 62% | 87% | 40% | 85% | 100% | 81% | 42% | 86% | 71% | 100% | 90% | 100% | 100% | kinase still bound, per cent of control (PRKD2 (human)): 76%; kinase still bound, per cent of control (STK36 (human)): 96%; kinase still bound, per cent of control (SIK1 (human)): 77%; kinase still bound, per cent of control (WEE1 (human)): 94%; kinase still bound, per cent of control (STK10 (human)): 100%; kinase still bound, per cent of control [2]: 83%; kinase still bound, per cent of control (MAP3K6 (human)): 80%; kinase still bound, per cent of control (CAMK2D (human)): 100%; kinase still bound, per cent of control [3]: 93%; kinase still bound, per cent of control [4]: 28%; kinase still bound, per cent of control (CSNK1G1 (human)): 100%; kinase still bound, per cent of control (PRKCE (human)): 100%; kinase still bound, per cent of control (PDPK1 (human)): 100%; kinase still bound, per cent of control (RIOK3 (human)): 100%; kinase still bound, per cent of control (ULK1 (human)): 74%; kinase still bound, per cent of control (NEK11 (human)): 100%; kinase still bound, per cent of control (CDK3 (human)): 77%; kinase still bound, per cent of control (VRK2 (human)): 87%; kinase still bound, per cent of control (NEK3 (human)): 100%; kinase still bound, per cent of control [5]: 39% |
| C=CC(=O)Nc1ccc(C(=O)c2sc(Nc3ccc(N4CCN(C)CC4)cc3OC)nc2N)cc1 | 100% | 87% | 35% | 64% | 100% | 93% | 74% | 29% | 13% | 84% | 97% | 42% | 9.4% | 62% | 86% | 10% | 66% | 100% | 5.2% | 0.8% | kinase still bound, per cent of control (PRKD2 (human)): 70%; kinase still bound, per cent of control (STK36 (human)): 90%; kinase still bound, per cent of control (SIK1 (human)): 83%; kinase still bound, per cent of control (WEE1 (human)): 100%; kinase still bound, per cent of control (STK10 (human)): 100%; kinase still bound, per cent of control [2]: 100%; kinase still bound, per cent of control (MAP3K6 (human)): 84%; kinase still bound, per cent of control (CAMK2D (human)): 2.1%; kinase still bound, per cent of control [3]: 100%; kinase still bound, per cent of control [4]: 100%; kinase still bound, per cent of control (CSNK1G1 (human)): 18%; kinase still bound, per cent of control (PRKCE (human)): 81%; kinase still bound, per cent of control (PDPK1 (human)): 100%; kinase still bound, per cent of control (RIOK3 (human)): 61%; kinase still bound, per cent of control (ULK1 (human)): 5.1%; kinase still bound, per cent of control (NEK11 (human)): 68%; kinase still bound, per cent of control (CDK3 (human)): 88%; kinase still bound, per cent of control (VRK2 (human)): 96%; kinase still bound, per cent of control (NEK3 (human)): 70%; kinase still bound, per cent of control [5]: 100% |
| COc1cc2c(Nc3ccc(NC(=O)c4ccccc4)cc3)ncnc2cc1OCCCN1CCOCC1 | 49% | 2.7% | 7.3% | 2% | 2% | 100% | 47% | 4.2% | 59% | 0.65% | 57% | 98% | 84% | 0.15% | 81% | 93% | 83% | 100% | 73% | 60% | kinase still bound, per cent of control (PRKD2 (human)): 100%; kinase still bound, per cent of control (STK36 (human)): 98%; kinase still bound, per cent of control (SIK1 (human)): 82%; kinase still bound, per cent of control (WEE1 (human)): 100%; kinase still bound, per cent of control (STK10 (human)): 0.15%; kinase still bound, per cent of control [2]: 99%; kinase still bound, per cent of control (MAP3K6 (human)): 100%; kinase still bound, per cent of control (CAMK2D (human)): 100%; kinase still bound, per cent of control [3]: 99%; kinase still bound, per cent of control [4]: 100%; kinase still bound, per cent of control (CSNK1G1 (human)): 97%; kinase still bound, per cent of control (PRKCE (human)): 100%; kinase still bound, per cent of control (PDPK1 (human)): 100%; kinase still bound, per cent of control (RIOK3 (human)): 100%; kinase still bound, per cent of control (ULK1 (human)): 48%; kinase still bound, per cent of control (NEK11 (human)): 100%; kinase still bound, per cent of control (CDK3 (human)): 100%; kinase still bound, per cent of control (VRK2 (human)): 100%; kinase still bound, per cent of control (NEK3 (human)): 100%; kinase still bound, per cent of control [5]: 9.6% |

— the kinase profiling compilation of Christmann-Franck et al. (2016)
